This note sets out measurements from ChEMBL document CHEMBL1129985, “Cytotoxicity and antiestrogenicity of a novel series of basic diphenylethylenes” (J Med Chem, 1997).

Each structure is given as a SMILES string.

One assay concerns the target Estrogen receptor (Homo sapiens, UniProt Q92731+P03372). Particulars: mvln.
Assay [1] concerns MCF7. The assay can be described thus: Cytotoxicity against MCF-7 cells in presence of 1 uM E2 (estradiol). The format is functional, Homo sapiens.
For assay [2], the system named is MCF7. The assay can be described thus: Cytostaticity against MCF-7 cells in the presence of 1 uMolar E2 (estradiol). Particulars: Homo sapiens. The format is functional, cell-based.
Assay [3] relates to MCF7. The assay can be described thus: Cytotoxicity against MCF-7 cells in the absence of 1 uM E2 (estradiol). The format is functional, Homo sapiens.
Assay [4] deals with Estrogen receptor (Ovis aries) (UniProt P49885+Q9TU15). The assay can be described thus: Relative binding affinity for estrogen receptor in lamb uterus cytosol relative to estradiol. The class given is protein assay.

As usually defined, the IC50 is the midpoint of a concentration-inhibition curve. For `CC(C)C=C(c1ccc(OCCN(C(C)C)C(C)C)cc1)c1ccc(OCCN(C(C)C)C(C)C)cc1`, the IC50 against Estrogen receptor is 3.1 µM; with MCF7 [2] it was 1600 nM. Moreover, the Cytotoxicity came to 4.5 µM in the assay with MCF7 [1] and 3.6 µM in the assay on MCF7 [3].
For `CCCCCCCCCCCCCC/C=C(/c1ccc(O)cc1)c1ccc(OCCN(CC)CC)cc1`, in that order: 8 µM, 7900 nM, 30 µM and 30 µM.
In the same order, the values of `CCN(CC)CCOc1ccc(/C(=C\C(C)C)c2ccc(O)cc2)cc1` are 0.5 µM, 2400 nM, 9.4 µM and 9.2 µM.
In the same order, the values of `CCN(CC)CCOc1ccc(/C(=C/Cc2ccccc2)c2ccc(O)cc2)cc1` are 1.7 µM, 1700 nM, 3 µM and 2.9 µM.
For the molecule `CCCCCC/C=C(\c1ccc(O)cc1)c1ccc(OCCN(CC)CC)cc1`, the IC50 against Estrogen receptor was found to be 2.5 µM; in the assay on MCF7 [2] it was 1200 nM. For the same molecule, the Cytotoxicity with MCF7 [1] worked out at 3.8 µM; with MCF7 [3], 2.8 µM.
In the same order, the values of `CCCCC/C=C(/c1ccc(O)cc1)c1ccc(OCCN(CC)CC)cc1` are 0.9 µM, 1600 nM, 3.2 µM and 2.9 µM.
In the same order, the values of `CCCCCCCC/C=C(\c1ccc(O)cc1)c1ccc(OCCN(CC)CC)cc1` are 4.7 µM, 1600 nM, 3 µM and 3.6 µM.
For `CCCCC/C=C(\c1ccc(O)cc1)c1ccc(OCCN2CCCC2)cc1`, the figures for the IC50 against Estrogen receptor and in the assay on MCF7 [2] were 3.3 µM and 1600 nM, respectively. In addition, the Cytotoxicity with MCF7 [1] and in the assay on MCF7 [3] was 2.9 µM in each case.
As for `CC/C(=C(\c1ccc(O)cc1)c1ccc(OCCN(C)C)cc1)c1ccccc1`, the Cytotoxicity in the assay on MCF7 [1] came out at 9.4 µM; in the assay on MCF7 [3], 6 µM. Besides, the IC50 in the assay on MCF7 [2] worked out at 8000 nM.
For `CCN(CC)CCOc1ccc(/C(=C\Cc2ccccc2)c2ccc(O)cc2)cc1`, the IC50 against Estrogen receptor stood at 1.3 µM; with MCF7 [2], 1800 nM. In addition, the Cytotoxicity with MCF7 [1] came out at 4.3 µM; in the assay on MCF7 [3], 3.2 µM.
For `CCCCCCCCCCCCCC/C=C(\c1ccc(O)cc1)c1ccc(OCCN(CC)CC)cc1`, in that order: 9.5 µM, 8000 nM, 30 µM and 30 µM.
In the case of `CCCC/C(CC)=C(/c1ccc(O)cc1)c1ccc(OCCN(CC)CC)cc1.CCCC/C(CC)=C(\c1ccc(O)cc1)c1ccc(OCCN(CC)CC)cc1`, the IC50 came out at 0.15 µM on Estrogen receptor and 1000 nM in the assay with MCF7 [2]. Further, the Cytotoxicity in the assay on MCF7 [1] and in the assay on MCF7 [3] was 2.8 µM each time.
On to `CCCC/C=C(\c1ccc(O)cc1)c1ccc(OCCN(CC)CC)cc1`, for which the IC50 against Estrogen receptor was 1.5 µM; in the assay with MCF7 [2] it was 1600 nM. Besides, the Cytotoxicity in the assay with MCF7 [1] was found to be 3 µM; in the assay with MCF7 [3], 2.9 µM.
Regarding `CC(C)N(CCOc1ccc(C(=C2CCCCC2)c2ccc(O)cc2)cc1)C(C)C`, the IC50 on Estrogen receptor came out at 0.2 µM; with MCF7 [2] it was 1800 nM. Besides, the Cytotoxicity with MCF7 [1] was determined as 5 µM; in the assay on MCF7 [3], 3.8 µM.
For `CCN(CC)CCOc1ccc(/C(=C/C(C)C)c2ccc(O)cc2)cc1`, in that order: 1.7 µM, 1700 nM, 8.8 µM and 8.4 µM.
For `CC(C)N(CCOc1ccc(C(=C2CCCCC2)c2ccc(OCCN(C(C)C)C(C)C)cc2)cc1)C(C)C`, in that order: 2.1 µM, 4200 nM, 8 µM and 30 µM.
Take `CC/C(=C(\c1ccccc1)c1ccc(OCCN(C)C)cc1)c1ccccc1` [TAMOXIFEN]: the Cytotoxicity was determined as 13 µM in the assay with MCF7 [1] and 9.8 µM in the assay with MCF7 [3]. The IC50 in the assay on MCF7 [2] came to 8000 nM.
As for `CCCCCC=C(c1ccc(OCCN(CC)CC)cc1)c1ccc(OCCN(CC)CC)cc1`, the IC50 at Estrogen receptor turned out to be 6 µM; with MCF7 [2], 700 nM. Also, the Cytotoxicity in the assay with MCF7 [1] stood at 1.3 µM; in the assay with MCF7 [3] it was 2.7 µM.
With `CCCCC/C=C(\c1ccc(O)cc1)c1ccc(OCCN(CC)CC)cc1`, the values for the IC50 on Estrogen receptor and in the assay on MCF7 [2] were 3.2 µM and 1100 nM, respectively. In addition, the Cytotoxicity in the assay with MCF7 [1] came out at 3.2 µM; in the assay with MCF7 [3] it was 2.7 µM. The same molecule returned a relative binding affinity (RBA) in assay [4] of 0.1.
Turning to `CCCC/C=C(/c1ccc(O)cc1)c1ccc(OCCN(CC)CC)cc1`, the concentration for half-maximal inhibition (IC50) on Estrogen receptor was 0.5 µM; with MCF7 [2] it was 1700 nM. Further, the results for the Cytotoxicity in the assay with MCF7 [1] and with MCF7 [3] were 5.2 µM and 4.4 µM, respectively.
Take `CCCCC/C=C(/c1ccc(O)cc1)c1ccc(OCCN(C)C)cc1`: the IC50 against Estrogen receptor was determined as 1.5 µM; with MCF7 [2], 2400 nM. In addition, the Cytotoxicity worked out at 9.3 µM in the assay with MCF7 [1] and 8.5 µM with MCF7 [3].
For `CCCCCCCC/C=C(/c1ccc(O)cc1)c1ccc(OCCN(CC)CC)cc1`, in that order: 3.5 µM, 1700 nM, 2.9 µM and 5.1 µM.
In the same order, the values of `CCCCCC/C=C(/c1ccc(O)cc1)c1ccc(OCCN(CC)CC)cc1` are 1.9 µM, 1600 nM, 3 µM and 2.9 µM.
In the case of `CCCCC/C=C(\c1ccc(O)cc1)c1ccc(OCCN(C)C)cc1`, the IC50 against Estrogen receptor came out at 1.8 µM; in the assay with MCF7 [2] it was 1700 nM. For the same molecule, the Cytotoxicity came to 3 µM with MCF7 [1] and 2.9 µM with MCF7 [3].
